{"source": "patent US10457710B2", "about": "“Antimicrobial peptides, their variants and uses” (priority 2015, dated 2019)", "format_in_all_cases": "cell-based", "key": {"[1]": {"system": "clinical strains of E. cloacae", "experiment": "MIC, microdilution, clinical strains", "details": "0.02% BSA, 0.2% acetic acid", "method_in_brief": "(§1)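 Overnight MH agar colonies were suspended in MH broth to 5.0×10^5 cfu/ml, mixed with serial peptide dilutions (0.125–128 μg/ml) and incubated at 37° C for 20 to 24 hours. Yeast MICs were run the same way in potato dextrose broth, and wells were scored visually.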"}, "[2]": {"system": "clinical strains of E. coli", "experiment": "MIC, microdilution, clinical strains", "details": "microdilution, Muller Hinton broth-cation adjusted, 0.02% BSA, 0.2% acetic acid", "method_in_brief": "as §1"}, "[3]": {"system": "clinical strains of K. pneumoniae", "experiment": "MIC, microdilution, clinical strains", "details": "0.02% BSA, 0.2% acetic acid", "method_in_brief": "as §1"}, "[4]": {"system": "clinical strains of P. aeruginosa", "experiment": "MIC, microdilution, clinical strains", "details": "0.02% BSA, 0.2% acetic acid", "method_in_brief": "as §1"}, "[5]": {"system": "clinical strains of Proteus mirabilis", "experiment": "MIC, microdilution, clinical strains", "details": "0.02% BSA, 0.2% acetic acid", "method_in_brief": "as §1"}, "[6]": {"system": "clinical strains of S. aureus", "experiment": "MIC, microdilution, clinical strains", "details": "0.02% BSA, 0.2% acetic acid", "method_in_brief": "as §1"}, "[7]": {"system": "clinical strains of S. pneumoniae", "experiment": "MIC, microdilution, clinical strains", "details": "0.02% BSA, 0.2% acetic acid", "method_in_brief": "as §1"}, "[8]": {"system": "clinical strains of Serratia marcescens", "experiment": "MIC, microdilution, clinical strains", "details": "0.02% BSA, 0.2% acetic acid", "method_in_brief": "as §1"}, "C. glabrata": {"system": "C. glabrata", "experiment": "MIC, clinical yeast strains", "details": "D-form peptide, concentrations tested 0.125 to 128 μg/ml", "method_in_brief": "as §1"}, "C. parapsilosis": {"system": "C. parapsilosis", "experiment": "MIC, clinical yeast strains", "details": "D-form peptide, concentrations tested 0.125 to 128 μg/ml", "method_in_brief": "as §1"}, "Candida albicans": {"system": "Candida albicans", "experiment": "MIC, clinical yeast strains", "details": "D-form peptide, concentrations tested 0.125 to 128 μg/ml", "method_in_brief": "as §1"}, "C. quillermondiae": {"system": "C. quillermondiae", "experiment": "MIC, clinical yeast strains", "details": "clinical yeast strain 1; D-form peptide; concentrations tested 0.125 to 128 μg/ml", "method_in_brief": "as §1"}}, "note": "Where a SMILES comes first, the peptide text is derived from it. [ ]: non-standard residue; d: D form."}
{"compound": "CC(C)C[C@@H](NC(=O)[C@@H](CCCCN)NC(=O)[C@@H](Cc1c[nH]c2ccccc12)NC(=O)[C@@H](CCCCN)NC(=O)[C@@H](C)NC(=O)[C@@H](Cc1c[nH]cn1)NC(=O)[C@@H](CC(C)C)NC(=O)[C@@H](CCCNC(=N)N)NC(=O)[C@@H](Cc1c[nH]c2ccccc12)NC(=O)[C@H](N)Cc1c[nH]c2ccccc12)C(=O)N[C@H](Cc1c[nH]c2ccccc12)C(=O)O", "note": "[Chain109D] (H-[dW][dW][dR][dL][dH][dA][dK][dW][dK][dL][dW]-OH)", "values": [{"measurement": "Minimum inhibitory concentration", "setting": "[1]; Enterobacter cloacae strain 1, Muller Hinton broth-cation adjusted", "result": 4}, {"measurement": "Minimum inhibitory concentration", "setting": "[1]; Enterobacter cloacae strain 2, Muller Hinton broth-cation adjusted", "result": 8}, {"measurement": "Minimum inhibitory concentration", "setting": "[1]; Enterobacter cloacae strain 3, Muller Hinton broth-cation adjusted", "result": 8}, {"measurement": "Minimum inhibitory concentration", "setting": "[1]; Enterobacter cloacae strain 4, Muller Hinton broth-cation adjusted", "result": 8}, {"measurement": "Minimum inhibitory concentration", "setting": "[1]; Enterobacter cloacae strain 5, Muller Hinton broth-cation adjusted", "result": 4}, {"measurement": "Minimum inhibitory concentration", "setting": "[2]; Escherichia coli strain 1", "result": 16}, {"measurement": "Minimum inhibitory concentration", "setting": "[2]; Escherichia coli strain 2", "result": 4}, {"measurement": "Minimum inhibitory concentration", "setting": "[2]; Escherichia coli strain 3", "result": 4}, {"measurement": "Minimum inhibitory concentration", "setting": "[2]; Escherichia coli strain 4", "result": 4}, {"measurement": "Minimum inhibitory concentration", "setting": "[2]; Escherichia coli strain 5", "result": 4}, {"measurement": "Minimum inhibitory concentration", "setting": "[3]; Klebsiella pneumoniae strain 1, Muller Hinton broth-cation adjusted", "result": 16}, {"measurement": "Minimum inhibitory concentration", "setting": "[3]; Klebsiella pneumoniae strain 2, Muller Hinton broth-cation adjusted", "result": 8}, {"measurement": "Minimum inhibitory concentration", "setting": "[3]; Klebsiella pneumoniae strain 3, Muller Hinton broth-cation adjusted", "result": 8}, {"measurement": "Minimum inhibitory concentration", "setting": "[3]; Klebsiella pneumoniae strain 4, Muller Hinton broth-cation adjusted", "result": 16}, {"measurement": "Minimum inhibitory concentration", "setting": "[3]; Klebsiella pneumoniae strain 5, Muller Hinton broth-cation adjusted", "result": 8}, {"measurement": "Minimum inhibitory concentration", "setting": "[4]; Pseudomonas aeruginosa strain 1, Muller Hinton broth-cation adjusted", "result": 16}, {"measurement": "Minimum inhibitory concentration", "setting": "[4]; Pseudomonas aeruginosa strain 2, Muller Hinton broth-cation adjusted", "result": 16}, {"measurement": "Minimum inhibitory concentration", "setting": "[4]; Pseudomonas aeruginosa strain 3, Muller Hinton broth-cation adjusted", "result": 16}, {"measurement": "Minimum inhibitory concentration", "setting": "[4]; Pseudomonas aeruginosa strain 4, Muller Hinton broth-cation adjusted", "result": 16}, {"measurement": "Minimum inhibitory concentration", "setting": "[4]; Pseudomonas aeruginosa strain 5, Muller Hinton broth-cation adjusted", "result": 8}, {"measurement": "Minimum inhibitory concentration", "setting": "[5]; Proteus mirabilis strain 1, Muller Hinton broth-cation adjusted", "result": ">128"}, {"measurement": "Minimum inhibitory concentration", "setting": "[5]; Proteus mirabilis strain 2, Muller Hinton broth-cation adjusted", "result": 64}, {"measurement": "Minimum inhibitory concentration", "setting": "[5]; Proteus mirabilis strain 3, Muller Hinton broth-cation adjusted", "result": 64}, {"measurement": "Minimum inhibitory concentration", "setting": "[5]; Proteus mirabilis strain 4, Muller Hinton broth-cation adjusted", "result": ">128"}, {"measurement": "Minimum inhibitory concentration", "setting": "[5]; Proteus mirabilis strain 5, Muller Hinton broth-cation adjusted", "result": ">128"}, {"measurement": "Minimum inhibitory concentration", "setting": "[6]; Staphylococcus aureus strain 1, Muller Hinton broth-cation adjusted", "result": 2}, {"measurement": "Minimum inhibitory concentration", "setting": "[6]; Staphylococcus aureus strain 2, Muller Hinton broth-cation adjusted", "result": 4}, {"measurement": "Minimum inhibitory concentration", "setting": "[6]; Staphylococcus aureus strain 3, Muller Hinton broth-cation adjusted", "result": 2}, {"measurement": "Minimum inhibitory concentration", "setting": "[6]; Staphylococcus aureus strain 4, Muller Hinton broth-cation adjusted", "result": 2}, {"measurement": "Minimum inhibitory concentration", "setting": "[6]; Staphylococcus aureus strain 5, Muller Hinton broth-cation adjusted", "result": 2}, {"measurement": "Minimum inhibitory concentration", "setting": "[7]; Streptococcus pneumoniae strain 1, Muller Hinton broth-cation adjusted", "result": 16}, {"measurement": "Minimum inhibitory concentration", "setting": "[7]; Streptococcus pneumoniae strain 2, Muller Hinton broth-cation adjusted", "result": 8}, {"measurement": "Minimum inhibitory concentration", "setting": "[7]; Streptococcus pneumoniae strain 3, Muller Hinton broth-cation adjusted", "result": 2}, {"measurement": "Minimum inhibitory concentration", "setting": "[7]; Streptococcus pneumoniae strain 4, Muller Hinton broth-cation adjusted", "result": 8}, {"measurement": "Minimum inhibitory concentration", "setting": "[7]; Streptococcus pneumoniae strain 5, Muller Hinton broth-cation adjusted", "result": 8}, {"measurement": "Minimum inhibitory concentration", "setting": "[8]; Serratia marcescens strain 1, Muller Hinton broth-cation adjusted", "result": ">128"}, {"measurement": "Minimum inhibitory concentration", "setting": "[8]; Serratia marcescens strain 2, Muller Hinton broth-cation adjusted", "result": ">128"}, {"measurement": "Minimum inhibitory concentration", "setting": "[8]; Serratia marcescens strain 3, Muller Hinton broth-cation adjusted", "result": ">128"}, {"measurement": "Minimum inhibitory concentration", "setting": "[8]; Serratia marcescens strain 4, Muller Hinton broth-cation adjusted", "result": ">128"}, {"measurement": "Minimum inhibitory concentration", "setting": "[8]; Serratia marcescens strain 5, Muller Hinton broth-cation adjusted", "result": 64}, {"measurement": "Minimum inhibitory concentration, C. glabrata strain 1", "setting": "C. glabrata; clinical yeast strain 1", "result": 128}, {"measurement": "Minimum inhibitory concentration, C. glabrata strain 2", "setting": "C. glabrata; clinical yeast strain 2", "result": 128}, {"measurement": "Minimum inhibitory concentration, C. glabrata strain 3", "setting": "C. glabrata; clinical yeast strain 3", "result": 16}, {"measurement": "Minimum inhibitory concentration, C. glabrata strain 4", "setting": "C. glabrata; clinical yeast strain 4", "result": 64}, {"measurement": "Minimum inhibitory concentration, C. parapsilosis strain 1", "setting": "C. parapsilosis; clinical yeast strain 1", "result": 128}, {"measurement": "Minimum inhibitory concentration, C. parapsilosis strain 2", "setting": "C. parapsilosis; clinical yeast strain 2", "result": 128}, {"measurement": "Minimum inhibitory concentration, C. parapsilosis strain 3", "setting": "C. parapsilosis; clinical yeast strain 3", "result": 128}, {"measurement": "Minimum inhibitory concentration, C. parapsilosis strain 4", "setting": "C. parapsilosis; clinical yeast strain 4", "result": 8}, {"measurement": "Minimum inhibitory concentration, Candida albicans strain 1", "setting": "Candida albicans; clinical yeast strain 1", "result": 128}, {"measurement": "Minimum inhibitory concentration, Candida albicans strain 2", "setting": "Candida albicans; clinical yeast strain 2", "result": 128}, {"measurement": "Minimum inhibitory concentration, Candida albicans strain 3", "setting": "Candida albicans; clinical yeast strain 3", "result": 128}, {"measurement": "Minimum inhibitory concentration, Candida albicans strain 4", "setting": "Candida albicans; clinical yeast strain 4", "result": 128}, {"measurement": "Minimum inhibitory concentration, Candida albicans strain 5", "setting": "Candida albicans; clinical yeast strain 5", "result": 128}, {"measurement": "Minimum inhibitory concentration, C. quillermondiae strain 1", "setting": "C. quillermondiae", "result": 128}]}
